{"source": "paper PMC9000801", "about": "“Bioactivities and Mode of Actions of Dibutyl Phthalates and Nocardamine from Streptomyces sp. H11809” (Molecules, 2022)", "biological_target": "T1, human GSK-3β (Hs GSK-3β) (Homo sapiens, UniProt P49841)", "T1 construct": "gene GSK3B", "T1 sequence (P49841 whole entry)": "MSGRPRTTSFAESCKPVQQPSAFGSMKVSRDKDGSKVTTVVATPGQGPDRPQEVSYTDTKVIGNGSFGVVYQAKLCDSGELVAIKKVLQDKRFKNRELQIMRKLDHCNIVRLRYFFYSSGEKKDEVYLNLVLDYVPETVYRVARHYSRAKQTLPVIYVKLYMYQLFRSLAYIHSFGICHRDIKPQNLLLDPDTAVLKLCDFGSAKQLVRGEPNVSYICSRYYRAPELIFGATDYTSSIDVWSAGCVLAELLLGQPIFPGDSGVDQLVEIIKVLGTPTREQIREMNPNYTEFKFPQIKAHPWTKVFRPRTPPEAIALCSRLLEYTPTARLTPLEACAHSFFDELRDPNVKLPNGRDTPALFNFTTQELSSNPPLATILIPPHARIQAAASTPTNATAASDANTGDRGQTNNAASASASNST", "test": "Kinase-Glo Plus luminescent kinase assay with recombinant enzyme; Michaelis-Menten and Lineweaver-Burk kinetics", "assay_type": "biochemical", "data": [{"compound": "CCCCOC(=O)c1ccccc1C(=O)OCCCC", "note": "[DBP, dibutyl phthalate]", "values": [{"measurement": "IC50", "value": 2, "unit": "µM"}]}]}
